In brackets after ≈: the same amount, converted by molar mass.
What was measured:
[1] = test system: LXFS 538; assay: Two-layer soft agar culture of human tumour xenografts; format: cell-based; settings: T/C ≤30%
Experimental: (§1) The in vitro activity of glycoconjugates of quinolone-a was determined on human tumour xenografts in a two-layer soft agar culture system according to Hamburger and Salmon (Science 197: 461-463).
(§2) The solid tumours were initially grown in the athymic naked mouse (NMRI nu/nu), obtained by surgery and comminuted mechanically. Individual cells were then obtained by incubation in an enzyme mixture of collagenase 0.05%, DNAse 0.07% and hyaluronidase 0.1% in RPMI at 37° C. for 30 minutes. The cells were washed 2× and then passed through a sieve of 200 μm and 20 μm mesh width.
(§3) The base layer comprises 0.2 ml of Iscoves's Modified Dulbeccos Medium with 20% foetal calf serum and 0.7% agar. 40,000 to 200,000 cells in 0.2 ml of the same medium and 0.4% agar were applied to this layer in 24 multiwell plates. The cytostatic substances were added in 0.2 ml of medium.
(§4) The cultures were incubated at 37° C. in a 7% CO2 atmosphere for 6 to 15 days. The colonies which had grown were then counted under an inverting microscope, the living colonies being stained with a tetrazolium chloride dyestuff 24 hours before the evaluation.
(§5) The effect of the active compound is expressed in per cent of surviving colonies compared with the colony count of untreated plates (T/C=colony count treated×100/control count untreated).
(§6) A substance is active if the T/C value is ≤30%.
(§7) This value is shown as the IC70 value in μg/ml in Table 8.

[2] = test system: HT 29; assay: as above; format: cell-based; settings: T/C ≤30%
Experimental: as §1, §2, §3, §4, §5, §6, §7

[3] = test system: CXF 280; assay: as above; format: cell-based; settings: T/C ≤30%
Experimental: as §1, §2, §3, §4, §5, §6, §7

[4] = test system: SW 480; assay: as above; format: cell-based; settings: T/C ≤30%
Experimental: as §1, §2, §3, §4, §5, §6, §7

[5] = test system: LXFL 529; assay: as above; format: cell-based; settings: T/C ≤30%
Experimental: as §1, §2, §3, §4, §5, §6, §7

[6] = test system: OVXF 899; assay: as above; format: cell-based; settings: T/C ≤30%
Experimental: as §1, §2, §3, §4, §5, §6, §7

[7] = test system: MEXF 989; assay: as above; format: cell-based; settings: T/C ≤30%
Experimental: as §1, §2, §3, §4, §5, §6, §7

[8] = test system: OVXF 1023; assay: as above; format: cell-based; settings: T/C ≤30%
Experimental: as §1, §2, §3, §4, §5, §6, §7

[9] = Acute toxicity, single administration; format: in vivo, nu/nu naked mice; settings: single administration i.v., aqueous solution
Experimental: Determination of the Acute Toxicity of Glycoconjugates of Batracyline (Single Administration)
The acute toxicity of the batracyline derivatives was determined on nu/nu naked mice.
The substances administered i.v., as aqueous solutions, and the substances administered i.p., as solutions in dimethyl sulphoxide, were injected once in concentrations of up to 400 mg of substance per kg of mouse.
The individual dose tolerated was calculated from the decrease in the weight of the animals up to 21 days after administration and from the number of animals surviving.

[10] = test system: B16F10 tumour; assay: In vivo test, survival of mice with transplanted B16F10 tumour; set-up: species or system mouse; settings: 0.1 mg/kg, treated daily
Experimental: Mice are inoculated with 5×10^6 B16F10 tumour cells on day 0. The animals in which tumour cells are transplanted develop solid peritoneal tumours and are then treated daily with test substances or with the vehicle control. In the control group, 50% of the animals usually die between day 14 and 20. The test substances are administered in buffer or an organic solvent system comprising 20% methanol and 20% dimethyl sulphoxide in 0.7% sodium chloride solution.
The therapeutic result arises from the prolonging of the survival time of the treated animals. […] A therapeutic index can be estimated from the tolerance and prolonging of the survival time.

[11] = test system: bone marrow parent cells of the mouse; assay: CSF-induced proliferation of bone marrow parent cells, in vitro; format: cell-based; settings: recombinant murine GM-CSF, 7 days
Experimental: Bone marrow cells are flushed out of the femur of mice. 10^5 cells are incubated in McCoy SA medium (0.3% agar) together with recombinant murine GM-CSF (Genzyme; parent cell colony formation) and the substances (10^-4 to 100 μg/ml) at 37° C. and 7% CO2. 7 days later, the colonies ([…]) and clusters (17-50 cells) are counted.

[12] = test system: bone marrow parent cells; assay: Bone marrow parent cell proliferation after in vivo treatment; set-up: species or system mouse
Experimental: Mice are treated subcutaneously with 1, 3, 10 or 30 mg/kg of the compounds. At various times (3, 24, 48, 72 p. inj.) the femurs are removed and the bone marrow cells isolated. 2×10^5 cells are incubated with GM-CSF as described above and, after 7 days, the colonies and clusters are counted.

[13] = test system: SW 480; assay: Growth inhibition test (MTT) for cytotoxic properties; format: cell-based, human
Summary of the method: (§8)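 IC50 values come from an MTT read at 540 nm (5 h at 37 °C, 5 mg/ml MTT stock), taken on day 3 and day 6. Cells (HT 29, SW 480; 50,000 cells/ml in RPMI/10% FCS) were pre-cultured 1 day, then compound in DMSO was added.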

[14] = test system: hepatoma; assay: Cleavage kinetics with cells (HPLC); settings: Table 2b; 37° C.
Experimental: Cleavage Kinetics With Cells
(§9) 2.25 ml of PBS are incubated together with 225 μl of a cell suspension (30 mg/ml) and 25 μl of substrate stock solution (1 mg/ml in 3% dimethyl sulphoxide in PBS) at 37° C. After 1 hour and 24 hours, samples of in each case 1 ml are taken, mixed with 1 ml of ethanol and left to stand at 4° C. for 20 minutes. After centrifugation (5 minutes at 3500 rpm), 100 μl of supernatant are taken for the HPLC analysis.

[15] = test system: SW-480; assay: Cleavage kinetics with cells (HPLC); settings: Table 2b; 37° C.
Experimental: Cleavage Kinetics With Cells
as §9

[16] = test system: B 16 F 10; assay: Growth inhibition test (MTT) for cytotoxic properties; format: cell-based, mouse; settings: Table 1b
Summary of the method: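 Cells in RPMI 1640 with 10% FCS pre-cultured 1 day at 37° C, then exposed to test substances in DMSO; growth checked after day 3 and day 6. Read-out by MTT, 5 h incubation, isopropanol solubilization, extinction at 540 nm.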

[17] = Cleavage kinetics with human blood (HPLC); format: in vitro ADME; settings: Table 2b; 37° C.
Source text: In Vitro Investigation of the Cleavability of the Glycoconjugates
Cleavage Kinetics With Human Blood

[18] = test system: HT 29; assay: Growth inhibition test (MTT) for cytotoxic properties; format: cell-based, human; settings: Table 1a, glycoconjugates of batracyline
Summary of the method: as §8

[19] = Investigation of organ distribution in naked mice carrying SW 480 tumours; format: in vivo, Athymic naked mice (strain NMRI nu/nu); settings: after conjugate 1 i.p. 300 mg/kg
[20] = as above; format: in vivo, Athymic naked mice (strain NMRI nu/nu)
Source text: Athymic naked mice (strain NMRI nu/nu) bred in "Drug Development Laboratory, Oncotest GmbH", Prof. H. H. Fiebig, Freiburg, were used for all the experiments. The animals were kept in Macrolon cages under laminar flow conditions. Tissue of the cell line SW 480 which had been grown beforehand in several passages in the naked mice, was used as the tumour material.
Two tumours per animal were implanted subcutaneously in the two flanks of the naked mice 6 to 8 weeks old. The animals were kept for 26 to 27 days until the time of randomization. The average tumour size was then 500 mg, corresponding to a tumour diameter of about 10 mm.
The pharmacokinetics themselves proceeded as follows: the substance to be investigated was injected into the naked mice and the mice were then put back in the cages until samples were taken after 1/2 hour and after 4 hours. The taking of samples itself began with sampling of blood. For this, the mouse was anaesthetized by means of anaesthetic ether (duration 1/2 to one minute). 0.5 hour and 4 hours after injection of the substance, the abdominal cavity was opened and the mouse was exsanguinated under anaesthesia via the Vena cava caudalis in the course of 1 to 2 minutes and then sacrificed by breaking its neck. As a result, central circulatory arrest occurred and organ perfusion was suppressed. The individual organs were then exposed and removed, an operation which took about 5 minutes. Immediately thereafter, the organ samples and then the remainder of the body were weighed and frozen in liquid nitrogen.
The substance "conjugate 1" is administered i.p. in an amount of 300 mg/kg of body weight and the substance "conjugate 2" is administered i.v. into the tail vein in an amount of 100 mg/kg. 5 animals are used per substance and time.
5, 10, 50, 100 and 200 μg of substance, dissolved in ethanol/water (1:1, v/v) were added to 1 g of bovine liver. The samples were then ground in a mortar with 1 g of sea sand and 2.5 ml of cooled ethanol/water (1:1, v/v) and centrifuged at 3500 rpm for 2 minutes. After removal of the supernatant, the residue was again mixed with 2.5 ml of ethanol/water and centrifuged and the supernatants were combined. In each case 100 μl were taken and analyzed by HPLC.
The organs were worked up analogously to A, the entire organs being broken down with 2.5 ml of ethanol/water and extracted.
The amount of blood taken was mixed with 2 ml of ethanol/water (1:1, v/v) and centrifuged for 2 minutes at 3500 rpm, and the supernatant was decanted. 2 ml of ethanol/water (1:1, v/v) were again added to the residue, the mixture was centrifuged and the supernatants were combined. In each case 100 μl of the combined supernatants were analyzed by HPLC. The HPLC conditions used under A were used. [drawing 14]

[21] = Kidney, after conjugate 2 i.v. 100 mg/kg
[22] = Tumour, after conjugate 2 i.v. 100 mg/kg

For `N[C@@H]1C=CC[C@@H]2CN(c3c(F)cc4c(=O)c(C(=O)O)cn(C5CC5)c4c3Cl)C[C@@H]21` (racemic) [Quinolone-a, 7-[(3aRS,4RS,7aSR)-4-amino-1,3,3a,4,7,7a-hexahydro-isoindol-2-yl]-8-chloro 1-cyclopropyl-6-fluoro-1,4-dihydro4-oxo-3-quinolinecarboxylic acid, reference compound], the “IC70 /μg/ml” value [1] was < 0.3 µg/mL, the “IC70 /μg/ml” value [2] was 20 µg/mL (≈ 47.9 µM) and the “IC70 /μg/ml” value [3] was 6 µg/mL (≈ 14.4 µM). The “IC70 /μg/ml” value [4] was 3 µg/mL (≈ 7.18 µM), the “IC70 /μg/ml” value [5] was 3 µg/mL (≈ 7.18 µM) and the “IC70 /μg/ml” value [6] was 2 µg/mL (≈ 4.79 µM). For the same molecule, the “IC70 /μg/ml” value [7] was < 0.3 µg/mL, the “IC70 /μg/ml” value [8] was 0.5 µg/mL (≈ 1.2 µM) and the “Individual dose tolerated in mg/kg of mouse, i.v.” value [9] was < 25 mg/kg of mouse. For the same molecule, the “% survivors Day 0” value [10] was 100%, the “% survivors Day 20” value [10] was 100% and the “% survivors Day 25” value [10] was 100%. For the same molecule, the “% survivors Day 30” value [10] was 60%, the “% survivors Day 35” value [10] was 40% and the IC50 ([11]; Mus musculus, 168 h, read-out: IC50 [μg/ml] CSF-induced proliferation of bone marrow parent cells of the mouse) was 0.0002 µg/mL. The “suppression of parent cell proliferation in vivo” value ([12]; 3 mg/kg, subcutaneously (FIG. 1)) was “massive suppression”.

With `C[C@@H]1O[C@H](Oc2ccc(NC(=S)N[C@H](C)C(=O)NC3C=CCC4CN(c5c(F)cc6c(=O)c(C(=O)O)cn(C7CC7)c6c5Cl)CC43)cc2)[C@@H](O)[C@H](OCC(=O)[O-])[C@@H]1O.[Na+]` (stereo partly drawn) [Example 12.3, N-{N'-[O-(3-O-Carboxymethyl-β-L-fucosyl)-4-hydroxy-phenylamino-thiocarbonyl]-D-alanyl}-quinolone-a, mono-sodium salt] the IC50 ([13]; Table 1b) was 2 µM, the “% cleavage in hepatoma 1 hour” value [14] was 0% and the “% cleavage in hepatoma 24 hours” value [14] was 0%. For the same molecule, the “IC70 /μg/ml” value [1] was 0.5 µg/mL, the “IC70 /μg/ml” value [2] was 5 µg/mL and the “IC70 /μg/ml” value [3] was 5 µg/mL. The “IC70 /μg/ml” value [4] was 11 µg/mL, the “IC70 /μg/ml” value [5] was 2 µg/mL and the “IC70 /μg/ml” value [6] was 162 µg/mL. For the same molecule, the “IC70 /μg/ml” value [7] was < 0.3 µg/mL, the “IC70 /μg/ml” value [8] was 10 µg/mL and the “% cleavage in SW-480 1 hour” value [15] was 0%. For the same molecule, the “% cleavage in SW-480 24 hours” value [15] was 0%, the “Individual dose tolerated in mg/kg of mouse, i.v.” value [9] was > 200 mg/kg of mouse and the IC50 [16] was 0.3 µM. For the same molecule, the “% cleavage in human blood 1 hour” value [17] was 0%, the “% cleavage in human blood 24 hours” value [17] was 0% and the “IC50 [μg/ml] CSF-induced proliferation of bone marrow parent cells of the mouse” value [11] was 0.27 µg/mL. For the same molecule, the “inhibition in parent cell proliferation in vivo” value ([12]; up to 30 mg/kg, subcutaneously) was “no inhibition”.

With batracyline the IC50 [18] was 20 µM, the IC50 ([13]; Table 1a, glycoconjugates of batracyline) was 25 µM and the “Mean 1 hour (μg/g of organ)” value ([19]; Kidney) was 26.1 μg/g of organ. The “Mean 1 hour (μg/g of organ)” value ([19]; Liver) was 34.1 μg/g of organ, the “Mean 4 hours (μg/g of organ)” value ([20]; Kidney, after conjugate 1 i.p. 300 mg/kg) was 27.5 μg/g of organ and the “Mean 0.5 hour (μg/g of organ)” value [20, 21] was 10.7 μg/g of organ. The “Mean 4 hours (μg/g of organ)” value [20, 21] was 0.8 μg/g of organ, the “Mean 4 hours (μg/g of organ)” value ([20]; Liver, after conjugate 1 i.p. 300 mg/kg) was 22.4 μg/g of organ and the “Mean 0.5 hour (μg/g of organ)” value [20, 22] was 2.5 μg/g of organ. The “Mean 4 hours (μg/g of organ)” value [20, 22] was 3.12 μg/g of organ.

Source: patent US6271342A, “Sugar-modified cytostatics” (Bayer Aktiengesellschaft, priority 1995, dated 2001)
